Measured values taken from PubChem BioAssay (NCI).
Several values for one entry are separate records, joined by “and”; a condition that tells them apart may be missing. Equal entries are not always repeated.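 Tested at 5 concentrations; 48 h exposure; 96-well plates; endpoints linearly interpolated, else capped at highest concentration. GI50: concentration for 50% inhibition of growth. TGI: concentration producing complete growth inhibition.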

Legend:
Assay in all cases: DTP human tumour cell line panel, 48 h
[1] = tested on: OVCAR-5 ovarian
[2] = tested on: KM12 colon
[3] = tested on: MOLT-4 leukemia
[4] = tested on: SF-539 CNS
[5] = tested on: SK-MEL-2 melanoma
[6] = tested on: A549 NSCLC
[7] = tested on: SK-MEL-28 melanoma
[8] = tested on: SK-MEL-5 melanoma
[9] = tested on: 786-0 renal
[10] = tested on: SNB-75 CNS

For `CCOc1ccc(-c2nc3ccc(-c4nc5ccc(N6CCN(C)CC6)cc5[nH]4)cc3[nH]2)cc1`, the GI50 [1] was 1.47 µM, the TGI [1] was 3.07 µM and the GI50 [2] was 0.999 µM. It also gave a TGI [2] of 2.15 µM, a GI50 [3] of 0.299 µM and a TGI [3] of 1.81 µM. The GI50 [4] was 0.689 µM, the TGI [4] was 2 µM and the GI50 [5] was 1.07 µM. The TGI [5] was 2.49 µM, the GI50 [6] was 1.24 µM and 1.04 µM and the TGI [6] was 3.13 µM and 3.35 µM. For the same molecule, the GI50 [7] was 0.77 µM, the TGI [7] was 2.13 µM and the GI50 [8] was 0.0761 µM. The TGI [8] was 1.42 µM, the GI50 [9] was 0.527 µM and 0.198 µM and the TGI [9] was 1.57 µM and 0.809 µM. It also gave a GI50 [10] of 0.131 µM and a TGI [10] of 0.354 µM.
In the case of `CC[C@]12CN3CCc4c([nH]c5ccccc45)[C@@](C(=O)OC)(c4cc5c(cc4OC)N(C)[C@H]4[C@@](O)(C(=O)OC)[C@H](OC(C)=O)[C@]6(CC)C=CCN7CC[C@]54[C@@H]76)CC(C3)[C@H]1O2` (stereo partly specified), the GI50 [1] is reported as 1.19 µM, the TGI [1] is reported as over 100 µM and the GI50 [2] is reported as 0.105 µM. It also gave a GI50 [3] of 0.236 µM, a TGI [3] of over 100 µM and a GI50 [4] of 0.128 µM. For the same molecule, the TGI [4] was 1.8 µM and 9.39 µM, the GI50 [5] was 0.0434 µM and the GI50 [6] was 0.599 µM. For the same molecule, the TGI [6] was over 100 µM, the TGI [7] was 93.1 µM and the GI50 [8] was 0.0888 µM. It also gave a TGI [8] of 0.887 µM, a GI50 [9] of 1.3 µM and a TGI [9] of over 100 µM. For the same molecule, the TGI [10] was over 100 µM.
`CCCCCSc1ccc2nc(NC(=O)OCC)sc2c1` was tested, and the GI50 [1] was 2.73 µM, the TGI [1] was over 100 µM and the GI50 [2] was 0.409 µM. The TGI [2] was over 100 µM, the GI50 [3] was 0.85 µM and the TGI [3] was over 100 µM. For the same molecule, the GI50 [4] was 0.4 µM, the TGI [4] was 4.77 µM and the GI50 [5] was 0.431 µM. It also gave a TGI [5] of 25.3 µM, a GI50 [6] of 2.37 µM and a TGI [6] of over 100 µM. The GI50 [7] was 66.2 µM, the TGI [7] was over 100 µM and the GI50 [8] was 0.658 µM. It also gave a TGI [8] of over 100 µM, a GI50 [9] of 0.541 µM and a TGI [9] of over 100 µM. It also gave a GI50 [10] of 0.41 µM and a TGI [10] of 20.2 µM.
`O=C1OC2(c3ccc(O)cc3Oc3cc(O)ccc32)c2cccc3cccc1c23` showed a GI50 [1] of 17.2 µM, a TGI [1] of 40.7 µM and a GI50 [2] of 23.2 µM. It also gave a TGI [2] of 57.8 µM, a GI50 [3] of 31.6 µM and a TGI [3] of over 100 µM. It also gave a GI50 [4] of 18.7 µM, a TGI [4] of 43.4 µM and a GI50 [5] of 21.4 µM. It also gave a TGI [5] of 48 µM, a GI50 [6] of 19.7 µM and a TGI [6] of 39.8 µM. It also gave a GI50 [7] of 17.2 µM, a TGI [7] of 34.3 µM and a GI50 [8] of 14.6 µM. The TGI [8] was 28 µM, the GI50 [9] was 27 µM and the TGI [9] was 81.3 µM. It also gave a GI50 [10] of 12.3 µM and a TGI [10] of 43.4 µM.
With `COc1cccc(/C=N\NC(=O)c2ccncc2)c1O` the GI50 [1] was 12.9 µM, the TGI [1] was over 100 µM and the GI50 [2] was 6.06 µM. It also gave a TGI [2] of over 100 µM, a GI50 [3] of 3.04 µM and a TGI [3] of over 100 µM. For the same molecule, the GI50 [4] was 6.07 µM, the TGI [4] was over 100 µM and the GI50 [5] was 53.2 µM. The TGI [5] was over 100 µM, the GI50 [6] was 11 µM and the TGI [6] was over 100 µM. It also gave a GI50 [7] of 19.1 µM, a TGI [7] of over 100 µM and a GI50 [8] of 6.29 µM. It also gave a TGI [8] of 29 µM, a GI50 [9] of 3.53 µM and a TGI [9] of 30.6 µM. The GI50 [10] was 47.6 µM and the TGI [10] was over 100 µM.
`COc1ccc2c(n1)Sc1nc3ccccc3nc1N2` gave a TGI [1] of over 100 µM, a TGI [2] of over 100 µM and a TGI [3] of 35.1 µM. For the same molecule, the TGI [4] was 50.1 µM, the TGI [5] was over 100 µM and the TGI [6] was over 100 µM. The TGI [7] was over 100 µM, the TGI [8] was over 100 µM and the TGI [9] was over 100 µM. For the same molecule, the TGI [10] was over 100 µM.
With `Clc1cc(Br)ccc1-c1ccc(CNCC2CCNCC2)o1` the GI50 [1] was 1.89 µM, the TGI [1] was 3.93 µM and the GI50 [2] was 1.71 µM. For the same molecule, the TGI [2] was 3.22 µM, the GI50 [3] was 1.7 µM and the TGI [3] was 3.57 µM. For the same molecule, the GI50 [4] was 1.65 µM, the TGI [4] was 3.17 µM and the GI50 [5] was 1.75 µM. It also gave a TGI [5] of 3.53 µM, a GI50 [6] of 1.9 µM and a TGI [6] of 3.77 µM. The GI50 [7] was 1.89 µM, the TGI [7] was 3.42 µM and the GI50 [8] was 1.76 µM. For the same molecule, the TGI [8] was 3.2 µM, the GI50 [9] was 1.55 µM and the TGI [9] was 3.06 µM. For the same molecule, the GI50 [10] was 1.26 µM and the TGI [10] was 2.88 µM.
`Cc1nnn(C)c1-c1cnc2c3ccc(C(C)(C)O)cc3n([C@H](c3ccccc3)C3CCOCC3)c2c1` showed a GI50 [1] of 0.0907 µM, a TGI [1] of over 100 µM and a GI50 [2] of 0.141 µM. The TGI [2] was over 91.4 µM, the GI50 [3] was 0.197 µM and the TGI [3] was over 100 µM. It also gave a GI50 [4] of under 0.0182 µM, a TGI [4] of 51.1 µM and a GI50 [5] of 0.765 µM. It also gave a TGI [5] of 30.7 µM, a GI50 [6] of 0.037 µM and a TGI [6] of 31.9 µM. For the same molecule, the GI50 [7] was 1.96 µM, the TGI [7] was over 100 µM and the GI50 [8] was under 0.01 µM. The TGI [8] was 10.7 µM, the GI50 [9] was 0.0707 µM and the TGI [9] was 21.5 µM. It also gave a GI50 [10] of under 0.01 µM and a TGI [10] of 20.3 µM.
Molecule `COc1cc2c(cc1OC)[C@@H]1C(=O)c3ccc4c(c3O[C@@H]1CO2)C[C@H](C(C)C)O4` has a GI50 [1] of 29.1 µM, a TGI [1] of over 100 µM and a GI50 [2] of 5.31 µM. For the same molecule, the TGI [2] was 26.1 µM, the GI50 [3] was 6.81 µM and the TGI [3] was over 69.2 µM. It also gave a GI50 [4] of 15 µM, a TGI [4] of over 53.4 µM and a GI50 [5] of 18.5 µM. It also gave a TGI [5] of 57 µM, a GI50 [6] of 0.759 µM and a TGI [6] of over 57.8 µM. It also gave a GI50 [7] of 15.4 µM, a TGI [7] of over 58.2 µM and a GI50 [8] of 0.0375 µM. The TGI [8] was 12.9 µM, the GI50 [9] was 5.6 µM and the TGI [9] was over 79.8 µM. It also gave a GI50 [10] of 4.39 µM and a TGI [10] of 23.8 µM.
In the case of `COC(=O)c1c2c(c(C)[n+]([O-])c1C)C(=O)C(NCc1ccccc1)=CC2=O`, the GI50 [1] is reported as 2.58 µM, the TGI [1] is reported as 6.22 µM and the GI50 [2] is reported as 2.4 µM. For the same molecule, the TGI [2] was 9.6 µM, the GI50 [3] was 2.21 µM and the TGI [3] was 5.6 µM. It also gave a GI50 [4] of 2.29 µM, a TGI [4] of 5.3 µM and a GI50 [5] of 2.63 µM. It also gave a TGI [5] of 9.48 µM, a GI50 [6] of 2.47 µM and a TGI [6] of 7.94 µM. It also gave a GI50 [7] of 4.63 µM, a TGI [7] of 22.2 µM and a GI50 [8] of 1.23 µM. For the same molecule, the TGI [8] was 2.5 µM, the GI50 [9] was 3.68 µM and the TGI [9] was 23.7 µM. It also gave a GI50 [10] of 3.62 µM and a TGI [10] of 13.9 µM.
`CCc1cc2c(c(OCC(F)(F)F)c(C(=O)NC3CCN(C(=O)CO)CC3)n2C)c(=O)n1CC(=O)c1ccccc1` was tested, and the GI50 [1] was over 100 µM, the TGI [1] was over 100 µM and the GI50 [2] was 58.5 µM. The TGI [2] was over 100 µM, the GI50 [3] was 37.2 µM and the TGI [3] was over 100 µM. The GI50 [4] was 36.5 µM, the TGI [4] was over 100 µM and the GI50 [5] was 56.1 µM. For the same molecule, the TGI [5] was over 100 µM, the GI50 [6] was 92.2 µM and the TGI [6] was over 100 µM. For the same molecule, the GI50 [7] was 70.4 µM, the TGI [7] was over 100 µM and the GI50 [8] was 80.2 µM. The TGI [8] was over 100 µM, the GI50 [9] was 33.4 µM and the TGI [9] was over 100 µM. The GI50 [10] was over 33.9 µM and the TGI [10] was over 100 µM.
`Cc1nc2ccccc2c(=O)n1/N=C(\N=Nc1ccccc1)c1ccccc1Cl` gave a TGI [1] of over 100 µM, a TGI [2] of over 100 µM and a TGI [3] of over 100 µM. The TGI [4] was 65.2 µM, the TGI [5] was 66.3 µM and the TGI [6] was over 100 µM. It also gave a TGI [7] of over 100 µM, a TGI [8] of over 100 µM and a TGI [9] of 99.9 µM. It also gave a TGI [10] of 82.2 µM.
With `CC(=O)O[C@@H]1c2c(c3c(=O)c4cccc(O)c4c(=O)c=3c2=[N+]=[N-])[C@H](OC(C)=O)[C@@H](OC(C)=O)[C@]1(C)O` the GI50 [1] was 0.613 µM, the TGI [1] was 1.23 µM and 1.35 µM and the GI50 [2] was 0.27 µM. For the same molecule, the TGI [2] was 0.914 µM and 0.9 µM, the GI50 [3] was 0.0675 µM and the TGI [3] was 0.275 µM and 0.358 µM. The GI50 [4] was 0.162 µM, the TGI [4] was 1.14 µM and 0.316 µM and the GI50 [5] was 0.495 µM. The TGI [5] was 1.63 µM and 1.18 µM, the GI50 [6] was 0.0518 µM and the TGI [6] was 1.16 µM and 0.228 µM. For the same molecule, the GI50 [7] was 0.829 µM, the TGI [7] was 1.51 µM and 2.28 µM and the GI50 [8] was 0.112 µM. For the same molecule, the TGI [8] was 1.18 µM and 0.273 µM, the GI50 [9] was 0.221 µM and the TGI [9] was 0.944 µM and 0.548 µM. For the same molecule, the GI50 [10] was 0.582 µM and the TGI [10] was 0.851 µM and 1.69 µM.
